According to ChEMBL document CHEMBL1133338, “Novel 3-(4-piperidinylthio)-1H-indoles as potent nonopioid orally active central analgesics” (Bioorg Med Chem Lett, 2000):

How the values were obtained:
[1] = system: Mus musculus; assay: In vivo analgesic activity in hot plate test in mice; format: functional
[2] = system: Mus musculus; assay: In vivo analgesic activity in phenylbenzoquinone-induced writhing test in mice; format: functional
[3] = system: Mus musculus; assay: Compound (at 30 mg/kg) was evaluated in vivo for the inhibition of phenylbenzoquinone induced painful reactions in mice; format: functional
[4] = system: Mus musculus; assay: Compound (at 30 mg/kg) was evaluated in vivo for the inhibition of painful reactions in mice in the hot plate test; format: functional
[5] = system: Rattus norvegicus; assay: Compound after peroral administration was tested for inhibition of kaolin-induced arthritis in rats; format: functional; conditions: po
[6] = system: Rattus norvegicus; assay: Compound (at 60 mg/kg perorally) was tested for inhibition of Freund's adjuvant-induced polyarthritis in rats; format: functional; conditions: route oral
[7] = target: Sodium-dependent serotonin transporter (Rattus norvegicus, UniProt P31652); assay: Binding affinity on Serotonin transporter was determined in rat
[8] = system: Mus musculus; assay: Effective dose in mice after intraperitoneal administration by tail pinch test; format: functional; conditions: ip
[9] = species: Mus musculus; assay: Effective dose in mice by tail pinch test
[10] = species: Rattus norvegicus; assay: Compound was tested for inhibition of Freund's adjuvant-induced polyarthritis in rats; format: functional
[11] = species: Rattus norvegicus; assay: Compound was tested for inhibition of kaolin induced arthritis in rats

Sequence of Sodium-dependent serotonin transporter (P31652 whole entry): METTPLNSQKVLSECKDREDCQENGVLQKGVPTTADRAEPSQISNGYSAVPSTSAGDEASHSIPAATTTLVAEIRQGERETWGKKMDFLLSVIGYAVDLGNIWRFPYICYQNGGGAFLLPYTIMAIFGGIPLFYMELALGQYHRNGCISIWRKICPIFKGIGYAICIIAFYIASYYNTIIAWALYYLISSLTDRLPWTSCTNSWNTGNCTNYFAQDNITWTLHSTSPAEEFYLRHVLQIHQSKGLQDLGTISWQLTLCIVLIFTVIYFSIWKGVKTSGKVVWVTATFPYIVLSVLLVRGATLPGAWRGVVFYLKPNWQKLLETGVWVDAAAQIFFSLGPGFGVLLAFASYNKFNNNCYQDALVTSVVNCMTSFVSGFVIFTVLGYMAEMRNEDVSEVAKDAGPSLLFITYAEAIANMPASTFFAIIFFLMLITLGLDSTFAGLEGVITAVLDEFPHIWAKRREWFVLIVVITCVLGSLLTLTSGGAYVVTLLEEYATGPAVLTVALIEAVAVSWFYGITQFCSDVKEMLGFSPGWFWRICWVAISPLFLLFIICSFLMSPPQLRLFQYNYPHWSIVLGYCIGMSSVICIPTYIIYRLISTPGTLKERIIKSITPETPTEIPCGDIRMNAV

| Structure (SMILES) | ED50 [1] [mg/kg] | ED50 [2] [mg/kg] | inhibition in vivo at 30 mg/kg [3] [%] | also measured |
| --- | --- | --- | --- | --- |
| CON1CCC(Sc2c[nH]c3ccc(Br)cc23)CC1 | 3.2 | 1.6 |  |  |
| O=CN1CCC(Sc2c[nH]c3ccc(Br)cc23)CC1 |  |  | 31 |  |
| CCCCn1cc(SC2CCN(C)CC2)c2cc(Br)ccc21 |  |  | 21 |  |
| CN1CCC(Sc2c[nH]c3ccc(I)cc23)CC1 |  | 54.2 |  |  |
| Clc1ccc2[nH]cc(SC3CCN(Cc4ccccc4)CC3)c2c1 |  | 9.7 |  | inhibition in vivo at 30 mg/kg [4]: 32% |
| CC(=O)N1CCC(Sc2c[nH]c3ccc(Br)cc23)CC1 | 2.8 | 2.9 |  |  |
| Cc1c(SC2CCNCC2)c2cc(Cl)ccc2n1Cc1ccc(Cl)cc1 |  |  | 27 |  |
| Cc1[nH]c2ccc(Cl)cc2c1SC1CCNCC1 | 9.9 | 0.8 |  |  |
| CN1CCC(Sc2c[nH]c3ccc(Cl)cc23)CC1 | 16.9 | 4 |  | ED50 [5]: 4.9 mg/kg; inhibition in vivo at 60 mg/kg [6]: 62%; Ki [7]: 3.01 nM; ED50 [8]: 25.3 mg/kg |
| O=S(=O)(c1c[nH]c2ccc(Cl)cc12)C1CCNCC1 | 8.4 | 12.5 |  |  |
| CON1CCC(Sc2c[nH]c3ccc(Cl)cc23)CC1 | 2.3 | 1.4 |  |  |
| CCN1CCC(Sc2c[nH]c3ccc(Cl)cc23)CC1 | 33.3 |  | 42 |  |
| CCOC(=O)N1CCC(Sc2c[nH]c3ccc(Br)cc23)CC1 | 27.3 | 6.3 |  |  |
| Clc1ccc2[nH]cc(SC3CCN(CCc4ccccc4)CC3)c2c1 |  | 8.9 |  | inhibition in vivo at 30 mg/kg [4]: 14% |
| CN1CCC(Sc2c[nH]c3ccc(O)cc23)CC1 |  |  | 9 |  |
| CC(C)N1CCC(Sc2c[nH]c3ccc(Cl)cc23)CC1 |  |  | 38 |  |
| CN1CC[C@]23c4c5ccc(O)c4O[C@H]2[C@@H](O)C=C[C@H]3[C@H]1C5 [MORPHINE] | 28.9 |  |  | ED50 [9]: 15 mg/kg; Dose [10]: 5.2 mg/kg; ED50 [11]: 4.4 mg/kg |

| Structure (SMILES) | ED50 [1] [mg/kg] | ED50 [2] [mg/kg] | inhibition in vivo at 30 mg/kg [3] [%] | also measured |
| --- | --- | --- | --- | --- |
| CC(=O)N1CCC(Sc2c[nH]c3ccc(Cl)cc23)CC1 | 3.8 | 2.9 |  |  |
| Cc1ccc2[nH]cc(SC3CCN(C)CC3)c2c1 |  |  | 25 |  |
| Cc1[nH]c2ccc(F)cc2c1SC1CCNCC1 | 12.7 | 5.9 |  |  |
| Clc1ccc2[nH]cc(SC3CCNCC3)c2c1 | 1.2 | 0.3 |  |  |
| CN1CCC([S+]([O-])c2c[nH]c3ccc(Cl)cc23)CC1 (stereo not given) |  |  | 44 |  |
| CC(C)c1ccc2[nH]cc(SC3CCN(C)CC3)c2c1 |  |  | 48 |  |
| CN1CCC(Sc2cn(C)c3ccc(Cl)cc23)CC1 | 9.3 | 3.9 |  |  |
| CN1CCC(S(=O)(=O)c2c[nH]c3ccc(Cl)cc23)CC1 | 16 | 5.4 |  |  |
| Cc1[nH]c2ccc(C(F)(F)F)cc2c1SC1CCNCC1 |  | 19.4 |  | inhibition in vivo at 30 mg/kg [4]: 41% |
| COc1ccc2[nH]cc(SC3CCN(C)CC3)c2c1 |  | 24.9 |  |  |
| Cc1[nH]c2ccc(Br)cc2c1SC1CCNCC1 | 3.1 | 0.7 |  |  |
| CCCC(=O)N1CCC(Sc2c[nH]c3ccc(Cl)cc23)CC1 | 22.7 | 8.9 |  |  |
| CON1CCC(Sc2cn(C)c3ccc(C(=O)O)cc23)CC1 |  |  | 25 |  |
| Clc1ccc(-c2[nH]c3ccc(Cl)cc3c2SC2CCNCC2)cc1 |  |  | 26 |  |
| CN1CCC(Sc2c[nH]c3ccccc23)CC1 |  |  | 26 |  |
| CN1CCC(Sc2cn(C)c3ccc(Br)cc23)CC1 | 8.6 | 5.4 |  |  |
| Cc1[nH]c2ccc(F)cc2c1SC1CCN(C)CC1 |  | 35.6 |  |  |
